Results from patent US8802673B2, “Heterocyclic amine derivatives” (Hoffmann-La Roche Inc, priority 2011, dated 2014).

Experiments:
[1] = target: rat TAAR1 (Rattus norvegicus (Rat), UniProt Q923Y9); assay: Radioligand binding assay on rat TAAR1; conditions: rat TAAR1 (second value of the cell), HEK-293 membranes; read-out: Ki (μM) mouse/rat
In short: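 Membranes from HEK293 cells stably expressing rat TAAR1 were used, with radioligand Kd determined by saturation for each batch. Compounds (10 pM to 10 μM, in duplicate) were incubated for 1 h at 4 °C. Bound radioactivity was collected by filtration onto PEI-soaked GF/C filters and counted by scintillation.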

[2] = target: mouse TAAR1 (Mus musculus (Mouse), UniProt Q923Y8); assay: Radioligand binding assay on mouse TAAR1; conditions: mouse TAAR1 (first value of the cell), HEK-293 membranes; read-out: Ki (μM) mouse/rat
In short: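 Membranes from HEK293 cells stably expressing mouse TAAR1, Kd of radioligand determined per batch by saturation. Compounds tested 10 pM to 10 μM in duplicate, incubated 1 h at 4 °C, then filtration over PEI-soaked GF/C filters and scintillation counting.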

Chain of mouse TAAR1 (Q923Y8 whole entry): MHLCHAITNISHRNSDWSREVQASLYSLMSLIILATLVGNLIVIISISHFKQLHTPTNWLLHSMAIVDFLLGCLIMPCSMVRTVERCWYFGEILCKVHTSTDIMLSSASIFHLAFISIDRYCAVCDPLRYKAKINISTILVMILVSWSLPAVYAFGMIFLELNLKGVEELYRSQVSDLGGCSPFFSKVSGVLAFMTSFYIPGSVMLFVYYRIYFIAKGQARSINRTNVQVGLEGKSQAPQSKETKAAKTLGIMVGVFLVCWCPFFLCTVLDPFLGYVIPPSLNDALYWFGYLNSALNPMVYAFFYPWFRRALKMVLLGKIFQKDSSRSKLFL
Chain of rat TAAR1 (Q923Y9 whole entry): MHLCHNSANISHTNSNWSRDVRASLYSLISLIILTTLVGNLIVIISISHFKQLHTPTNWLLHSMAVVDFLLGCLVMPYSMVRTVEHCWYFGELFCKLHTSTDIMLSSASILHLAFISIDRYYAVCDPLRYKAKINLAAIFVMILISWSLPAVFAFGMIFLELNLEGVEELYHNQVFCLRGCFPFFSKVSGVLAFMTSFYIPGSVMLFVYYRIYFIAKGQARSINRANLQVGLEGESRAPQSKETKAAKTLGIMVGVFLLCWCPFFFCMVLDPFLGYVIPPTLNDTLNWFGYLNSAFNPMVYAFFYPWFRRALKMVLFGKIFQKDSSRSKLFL

Compound | Ki [1] [µM] | Ki [2] [µM]
Cc1cc(Nc2ccc([C@H]3CNCCO3)cc2)ncc1Br [Example 62, (S)-5-Bromo-4-methyl-N-(4-(morpholin-2-yl)phenyl)pyridin-2-amine] | 0.0094 | 0.0005
Clc1cc(Nc2ccc([C@H]3CNCCO3)cc2)c(Cl)cn1 [Example 63, (S)-2,5-Dichloro-N-(4-(morpholin-2-yl)phenyl)pyridin-4-amine] | 1.49 | 0.373
Cc1cnc(Nc2ccc([C@H]3CNCCO3)cc2)cc1Br [Example 64, (S)-4-Bromo-5-methyl-N-(4-(morpholin-2-yl)phenyl)pyridin-2-amine] | 0.101 | 0.0027
c1cc([C@H]2CNCCO2)ccc1Nc1ccc2c(c1)OCO2 [Example 65, (S)—N-(4-(Morpholin-2-yl)phenyl)benzo[d][1,3]dioxol-5-amine] | 0.629 | 0.0131
Clc1ccc(Nc2ccc([C@@H]3CNCCO3)cc2)cn1 [Example 67, (R)-6-Chloro-N-(4-(morpholin-2-yl)phenyl)pyridin-3-amine] | 0.292 | 0.0074
CCc1cnc(Nc2ccc([C@@H]3CNCCO3)cc2)nc1 [Example 68, (R)-5-Ethyl-N-(4-(morpholin-2-yl)phenyl)pyrimidin-2-amine] | 0.0751 | 0.0094
Clc1ccc(Nc2ccc([C@@H]3CNCCO3)cc2)nc1 [Example 69, (R)-5-Chloro-N-(4-(morpholin-2-yl)phenyl)pyridin-2-amine] | 0.0438 | 0.0014
CCOc1cc(Nc2ccc([C@H]3CNCCO3)cc2)cnc1Cl [Example 71, (S)-6-Chloro-5-ethoxy-N-(4-(morpholin-2-yl)phenyl)pyridin-3-amine] | 0.168 | 0.0118
CCc1cnc(Nc2ccc([C@H]3CNCCO3)cc2)nc1C [Example 72, (5-Ethyl-4-methyl-pyrimidin-2-yl)-((S)-4-morpholin-2-yl-phenyl)-amine] | 0.22 | 0.0171
Cc1nc(Nc2ccc([C@H]3CNCCO3)cc2)ncc1C(C)C [Example 73, (5-Isopropyl-4-methyl-pyrimidin-2-yl)-((S)-4-morpholin-2-yl-phenyl)-amine] | 0.035 | 0.0096
c1cc([C@H]2CNCCO2)ccc1Nc1ncc2c(n1)CCCC2 [Example 74, ((S)-4-Morpholin-2-yl-phenyl)-(5,6,7,8-tetrahydro-quinazolin-2-yl)-amine] | 0.0295 | 0.0059
O=[N+]([O-])c1cnc(Nc2ccc([C@H]3CNCCO3)cc2)nc1 [Example 75, ((S)-4-Morpholin-2-yl-phenyl)-(5-nitro-pyrimidin-2-yl)-amine] | 0.228 | 0.0141
Fc1cc(Cl)cnc1Nc1ccc([C@H]2CNCCO2)cc1 [Example 77, (S)-5-Chloro-3-fluoro-N-(4-(morpholin-2-yl)phenyl)pyridin-2-amine] | 0.13 | 0.0053
CS(=O)(=O)c1cnc(Nc2ccc([C@H]3CNCCO3)cc2)nc1 [Example 78, (5-Methanesulfonyl-pyrimidin-2-yl)-((S)-4-morpholin-2-yl-phenyl)-amine] | 3.19 | 0.11
FC(F)(F)c1cc(Nc2ccc([C@H]3CNCCO3)cc2)ncc1Cl [Example 82, (S)-5-Chloro-N-(4-(morpholin-2-yl)phenyl)-4-(trifluoromethyl)pyridin-2-amine] | 0.0101 | 0.0008
Cc1cc(Nc2ccc([C@H]3CNCCO3)cc2)ncc1Cl [Example 83, (S)-5-Chloro-4-methyl-N-(4-(morpholin-2-yl)phenyl)pyridin-2-amine] | 0.0222 | 0.0006

Compound | Ki [1] [µM] | Ki [2] [µM]
c1cc([C@@H]2CNCCO2)ccc1Nc1ncc(C2CC2)cn1 [Example 86, (5-Cyclopropyl-pyrimidin-2-yl)-((R)-4-morpholin-2-yl-phenyl)-amine] | 0.009 | 0.0024
CCCc1cnc(Nc2ccc([C@@H]3CNCCO3)cc2)nc1 [Example 93, ((R)-4-Morpholin-2-yl-phenyl)-(5-propyl-pyrimidin-2-yl)-amine] | 0.0222 | 0.005
FC(F)(F)c1cnc(Nc2ccc([C@@H]3CNCCO3)cc2)nc1 [Example 95, ((R)-4-Morpholin-2-yl-phenyl)-(5-trifluoromethyl-pyrimidin-2-yl)-amine] | 0.0223 | 0.0057
Clc1cnc(Nc2ccc([C@@H]3CNCCO3)cc2)nc1 [Example 103, (R)-5-Chloro-N-(4-(morpholin-2-yl)phenyl)pyrimidin-2-amine] | 0.05 | 0.0044
Clc1cnc(Nc2ccc([C@H]3CNCCO3)cc2)nc1 [Example 104, (S)-5-Chloro-N-(4-(morpholin-2-yl)phenyl)pyrimidin-2-amine] | 0.105 | 0.0041
CCOc1cnc(Nc2ccc([C@@H]3CNCCO3)cc2)nc1 [Example 105, (5-Ethoxy-pyrimidin-2-yl)-((R)-4-morpholin-2-yl-phenyl)-amine] | 0.127 | 0.0116
CCc1cnc(Nc2ccc([C@@H]3CNCCO3)cc2C)nc1 [Example 106, (5-Ethyl-pyrimidin-2-yl)-((R)-2-methyl-4-morpholin-2-yl-phenyl)-amine] | 0.0814 | 0.0086
CCc1cnc(Nc2ccc([C@H]3CNCCO3)cc2C)nc1 [Example 107, (5-Ethyl-pyrimidin-2-yl)-((S)-2-methyl-4-morpholin-2-yl-phenyl)-amine] | 0.0877 | 0.005
CCc1cnc(Nc2ccc([C@@H]3CCCNC3)cc2)nc1 [Example 112, (5-Ethyl-pyrimidin-2-yl)-((S)-4-piperidin-3-yl-phenyl)-amine] | 0.197 | 0.0038
c1ccc(-c2cc(Nc3ccc([C@H]4CNCCO4)cc3)n[nH]2)cc1 [Example 113, (S)—N-(4-(Morpholin-2-yl)phenyl)-5-phenyl-1H-pyrazol-3-amine] | 0.0877 | 0.0011
CCOc1cnc(Nc2ccc([C@@H]3CCCNC3)cc2)nc1 [Example 114, (5-Ethoxy-pyrimidin-2-yl)-((S)-4-piperidin-3-yl-phenyl)-amine] | 0.996 | 0.0212
c1ccc(-c2nnc(Nc3ccc([C@H]4CNCCO4)cc3)o2)cc1 [Example 115, (S)—N-(4-(Morpholin-2-yl)phenyl)-5-phenyl-1,3,4-oxadiazol-2-amine] | 0.235 | 0.0079
CCc1cnc(Nc2ccc([C@@H]3CNCCO3)cc2F)nc1 [Example 116, (5-Ethyl-pyrimidin-2-yl)-((R)-2-fluoro-4-morpholin-2-yl-phenyl)-amine] | 0.007 | 0.0039
CCc1cnc(Nc2ccc([C@H]3CNCCO3)cc2F)nc1 [Example 117, (5-Ethyl-pyrimidin-2-yl)-((S)-2-fluoro-4-morpholin-2-yl-phenyl)-amine] | 0.0104 | 0.0034
CC(C)Oc1cnc(Nc2ccc([C@H]3CNCCO3)cc2)nc1 [Example 122, (5-Isopropoxy-pyrimidin-2-yl)-((S)-4-morpholin-2-yl-phenyl)-amine] | 0.0847 | 0.0079
CC(C)Oc1cnc(Nc2ccc([C@@H]3CNCCO3)cc2)nc1 [Example 123, (5-Isopropoxy-pyrimidin-2-yl)-((R)-4-morpholin-2-yl-phenyl)-amine] | 0.0796 | 0.0174
